Laboratory results taken from US7951815B2, “Substituted 1,4,8-triazaspiro [4,5]decan-2-one compounds” (Gruenenthal GmbH, priority 2004, dated 2011).
“And” between values parts separate entries of the source, which are not always exact repeats. Identical values can stand only once. Like-named read-outs stand apart in the source and are kept apart here.

Columns and labels:
male NMRI mice = assay: Analgesic test using the phenylquinone-induced writhing test on mice; type: in vivo; conditions: 10 mg/kg intravenous
Procedure: The analysis of analgesic activity is carried out using the phenylquinone-induced writhing assay in mice, modified as described in the article by I. C. Hendershot and J. Forsaith ((1959) in J. Pharmacol. Exp. Ther. 125, 237-240).
For the present purpose, male NMRI mice are used having a weight of from 25 to 30 g. Groups of 10 animals per substance dose receive, 10 minutes after an intravenous dose of test substances, an intraperitoneal administration of 0.3 ml/mouse of a 0.02% strength aqueous solution of phenylquinone (phenylbenzoquinone, obtainable from Sigma, Deisenhofen; solution produced with the addition of 5% of ethanol and storage in a water bath at 45° C.). The animals are placed individually in observation cages. Using a pushbutton counter, the number of pain-induced stretching movements (so-called writhing reactions=straightening of the body accompanied by stretching of the rear extremities) was counted over a period of from 5 to 20 minutes following the administration of phenylquinone. The control is provided by animals receiving only physiological saline. All substances are tested using the standard dosage of 10 mg/kg.

[1] = test system: batrachotoxin (BTX) binding site of the sodium channel; assay: Affinity to the batrachotoxin (BTX) binding site of the sodium channel; conditions: rat cerebrocortex synaptosomes, test concentration not given
5-HT transporter = target: T1, 5-HT transporter (Rattus norvegicus, UniProt P31652); assay: Inhibition of 5-HT uptake in rat brain synaptosomes; type: biochemical; conditions: rat, 1 μM; for inhibition at 1 µM: read-out: Uptake 5-HT, % inhibition
T1 construct: synaptosomes of rat brain areas are freshly isolated; from tissue; host or cells: rat brain synaptosomes (P2 fraction) from marrow and pons

human μ-opioid receptor = human μ-opioid receptor (Homo sapiens, UniProt P35372); assay: Affinity to the human μ-opioid receptor ([3H]-naloxone displacement); conditions: for inhibition at 1 µM: read-out: μ (Naloxone), 1 μM, % inhibition; for μ (Naloxone), 1 μM, % inhibition: Table II, [3H]-naloxone
Procedure: The receptor affinity to the human μ-opioid receptor is determined in a homogeneous batch in microtiter plates. For this purpose, dilution series of the substances to be tested are incubated at room temperature for 90 minutes in a total volume of 250 μL with a receptor membrane preparation (15-40 μg of protein/250 μL of incubation batch) of CHO-K1 cells which express the human μ-opioid receptor (RB-HOM receptor membrane preparation supplied by NEN, Zaventem, Belgium) in the presence of 1 nmol/L of the radioactive ligand [^3H]-naloxone (NET 719, supplied by NEN, Zaventem, Belgium), and of 1 mg of WGA-SPA beads (wheat germ agglutinin SPA beads supplied by Amersham/Pharmacia, Freiburg, Germany). As incubation buffer, 50 mmol/L of tris HCl supplemented with 0.05% (weight/volume) of sodium azide and with 0.06% (weight/volume) of bovine serum albumin is used. For determination of the nonspecific binding, 25 μmol/L of naloxone are added. On completion of the ninety-minute incubation time, the microtiter plates are centrifuged for 20 minutes at 1000 g and the radioactivity is measured in a β-counter (Microbeta-Trilux, supplied by PerkinElmer Wallac, Freiburg, Germany).
Based on the percentage displacement produced by different concentrations of the test substances, IC50 inhibitory concentrations are calculated which cause a 50 percent displacement of the radioactive ligand. As a result of recalculation using the Cheng-Prusoff relationship, the Ki values for the test substances can be obtained, as described in the publication of Y. Cheng, W. H. Prusoff, 1973, Biochem. Pharmacol., 22, pages 3099-3108.

NA transporter = assay: Inhibition of noradrenaline uptake in rat brain synaptosomes; type: biochemical; conditions: Table III

Sequence of human μ-opioid receptor (P35372 whole entry): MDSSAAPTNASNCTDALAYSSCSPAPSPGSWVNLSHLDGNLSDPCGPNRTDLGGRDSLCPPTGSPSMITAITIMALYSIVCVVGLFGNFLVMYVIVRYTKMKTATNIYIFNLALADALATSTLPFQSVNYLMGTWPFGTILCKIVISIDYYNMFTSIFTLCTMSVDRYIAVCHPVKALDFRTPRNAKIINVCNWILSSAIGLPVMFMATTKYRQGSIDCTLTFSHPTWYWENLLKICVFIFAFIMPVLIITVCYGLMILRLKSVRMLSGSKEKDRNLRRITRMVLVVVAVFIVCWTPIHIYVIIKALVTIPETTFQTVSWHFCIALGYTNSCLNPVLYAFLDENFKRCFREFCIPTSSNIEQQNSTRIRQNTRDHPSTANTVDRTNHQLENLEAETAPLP
T1 sequence (P31652 whole entry): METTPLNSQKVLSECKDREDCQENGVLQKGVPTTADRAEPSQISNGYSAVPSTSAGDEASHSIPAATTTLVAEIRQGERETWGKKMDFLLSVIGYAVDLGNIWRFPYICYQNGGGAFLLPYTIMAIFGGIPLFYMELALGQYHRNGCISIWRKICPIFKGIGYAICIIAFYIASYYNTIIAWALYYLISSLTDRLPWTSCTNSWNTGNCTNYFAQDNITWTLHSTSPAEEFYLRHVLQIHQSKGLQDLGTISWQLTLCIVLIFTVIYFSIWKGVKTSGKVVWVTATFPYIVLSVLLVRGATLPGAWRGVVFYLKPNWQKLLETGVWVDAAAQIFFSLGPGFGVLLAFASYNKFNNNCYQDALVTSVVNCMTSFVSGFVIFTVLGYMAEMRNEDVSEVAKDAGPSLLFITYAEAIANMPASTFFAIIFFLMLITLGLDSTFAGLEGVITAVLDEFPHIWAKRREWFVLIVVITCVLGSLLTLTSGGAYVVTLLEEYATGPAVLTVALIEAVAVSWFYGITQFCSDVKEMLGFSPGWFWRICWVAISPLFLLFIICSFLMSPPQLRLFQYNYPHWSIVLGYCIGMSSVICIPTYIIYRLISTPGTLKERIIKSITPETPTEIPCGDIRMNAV

In the case of `Cl.O=C(COc1ccc(Cl)cc1)N1CCC2(CC1)N[C@@H](Cc1ccccc1)C(=O)N2Cc1ccccc1` [Example 55, 1,3-(S)-dibenzyl-8-[2-(4-chlorophenoxy)acetyl]-1,4,8-triazaspiro[4,5]decan-2-one hydrochloride], the “% Inhibition of the writhing reaction (Dosage in mg/kg intravenous)” value (“% Inhibition of the writhing reaction” for short) (male NMRI mice) is reported as 45 (10) % and the BTX inhibition ([1]; Table II) is reported as 64.
`Cl.O=C(COc1ccccc1)N1CCC2(CC1)N[C@@H](Cc1ccccc1)C(=O)N2Cc1ccccc1` [Example 57, 1,3-(S)-dibenzyl-8-(2-phenoxyacetyl)-1,4,8-triazaspiro[4,5]decan-2-one hydrochloride] showed an inhibition at 1 µM (5-HT transporter; Table II) of 72%, a BTX inhibition ([1]; Table II) of 44 and an inhibition at 1 µM (human μ-opioid receptor) of 60%.
With `C=CCCC(=O)N1CCC2(CC1)NCC(=O)N2Cc1ccccc1F` [Example 287, 1-(2-Fluorobenzyl)-8-pent-4-enoyl-1,4,8-triazaspiro[4,5]decan-2-one] the inhibition at 1 µM (5-HT transporter; Table III) was 41%, the BTX inhibition ([1]; Table III) was 32 and the “Uptake (NA), rat, 10 μM, % inhibition” value (NA transporter) was 41%.
In the case of `CCOC(=O)CN1C(=O)C(Cc2ccccc2)NC12CCN(C(=O)c1ccc(NC(C)=O)cc1)CC2` (centres unmarked) [Example 256, Ethyl [8-(4-acetylaminobenzoyl)-3-benzyl-2-oxo-1,4,8-triazaspiro[4,5]dec-1-yl]acetate], the inhibition at 1 µM (5-HT transporter; Table III) is reported as 94%, the BTX inhibition ([1]; Table III) is reported as 48 and the “Uptake (NA), rat, 10 μM, % inhibition” value (NA transporter) is reported as 57%.
`Cl.O=C(c1ccc(Cl)cc1)N1CCC2(CC1)N[C@@H](Cc1ccccc1)C(=O)N2Cc1ccccc1` (racemic) [Example 29, 1,3-(S,R)-dibenzyl-8-(4-chlorobenzoyl)-1,4,8-triazaspiro[4,5]decan-2-one hydrochloride] was tested, and the “Uptake 5-HT, rat, 1 μM, % inhibition” value (5-HT transporter; Table II, hydrochloride) was 80% and 45%, the BTX inhibition ([1]; Table II, hydrochloride) was 65 and 60 and the “μ (Naloxone), 1 μM, % inhibition” value (human μ-opioid receptor) was 38%.
In the case of `CCC(CC)C(=O)N1CCC2(CC1)N[C@@H](Cc1ccccc1)C(=O)N2Cc1ccccc1.Cl` [Example 25, 1,3-(S)-dibenzyl-8-(2-ethylbutyryl)-1,4,8-triazaspiro[4,5]decan-2-one hydrochloride], the inhibition at 1 µM (5-HT transporter; Table II) is reported as 66%, the “% Inhibition of the writhing reaction” value (male NMRI mice) is reported as 42 (10) % and the BTX inhibition ([1]; Table II) is reported as 47. For the same compound, the inhibition at 1 µM (human μ-opioid receptor) was 66%.
With `CCOc1ccccc1C(=O)N1CCC2(CC1)NCC(=O)N2Cc1ccccc1F` [Example 280, 8-(2-Ethoxybenzoyl)-1-(2-fluorobenzyl)-1,4,8-triazaspiro[4,5]decan-2-one] the inhibition at 1 µM (5-HT transporter; Table III) was 60%, the BTX inhibition ([1]; Table III) was 30 and the “Uptake (NA), rat, 10 μM, % inhibition” value (NA transporter) was 35%.
In the case of `COc1ccccc1C(=O)N1CCC2(CC1)NC(Cc1ccccc1)C(=O)N2Cc1ccccc1F` (centres unmarked) [Example 274, 3-Benzyl-1-(2-fluorobenzyl)-8-(2-methoxybenzoyl)-1,4,8-triazaspiro[4,5]decan-2-one], the inhibition at 1 µM (5-HT transporter; Table III) is reported as 97%, the BTX inhibition ([1]; Table III) is reported as 85 and the “Uptake (NA), rat, 10 μM, % inhibition” value (NA transporter) is reported as 64%.
In the case of `CSCCC1NC2(CCN(C(=O)c3cccnc3Oc3ccccc3)CC2)N(Cc2ccccc2[N+](=O)[O-])C1=O` (centres unmarked) [Example 298, 3-(2-Methylsulfanylethyl)-1-(2-nitrobenzyl)-8-(2-phenoxypyridin-3-carbonyl)-1,4,8-triazaspiro[4,5]decan-2-one], the inhibition at 1 µM (5-HT transporter; Table III) is reported as 34%, the BTX inhibition ([1]; Table III) is reported as 48 and the “Uptake (NA), rat, 10 μM, % inhibition” value (NA transporter) is reported as 30%.
`CCC(CC)C(=O)N1CCC2(CC1)NC(=O)[C@H](Cc1ccccc1)N2.Cl` [Example 2, 3-(S)-Benzyl-8-(2-ethylbutyryl)-1,4,8-triazaspiro[4,5]decan-2-one hydrochloride] was tested, and the “% Inhibition of the writhing reaction” value (male NMRI mice) was 51 (10) %.
For `CCC(CC)C(=O)N1CCC2(CC1)N[C@@H](Cc1ccccc1)C(=O)N2Cc1ccc(F)cc1.Cl` (racemic) [Example 31, 3-(S,R)-benzyl-8-(2-ethylbutyryl)-1-(4-fluorobenzyl)-1,4,8-triazaspiro[4,5]decan-2-one hydrochloride], the “Uptake 5-HT, rat, 1 μM, % inhibition” value (5-HT transporter; Table II) was 34%, the “% Inhibition of the writhing reaction” value (male NMRI mice) was 36 (10) % and the BTX inhibition ([1]; Table II) was 61.
In the case of `Cl.O=C1NC2(CCN(C(=O)c3ccc(Cl)cc3)CC2)N[C@H]1Cc1ccccc1` (racemic) [Example 10, 3-(S,R)-Benzyl-8-(4-chlorobenzoyl)-1,4,8-triazaspiro[4,5]decan-2-one hydrochloride], the BTX inhibition ([1]; Table II) is reported as 53 and the “μ (Naloxone), 1 μM, % inhibition” value (human μ-opioid receptor) is reported as 94%.
For `CCOC(=O)CN1C(=O)C(Cc2ccccc2)NC12CCN(C(=O)c1ccc(-c3ccccc3)cc1)CC2` (centres unmarked) [Example 266, Ethyl [3-benzyl-8-(biphenyl-4-carbonyl)-2-oxo-1,4,8-triazaspiro[4,5]dec-1-yl]acetate], the inhibition at 1 µM (5-HT transporter; Table III) was 94%, the BTX inhibition ([1]; Table III) was 57 and the “Uptake (NA), rat, 10 μM, % inhibition” value (NA transporter) was 38%.
For `Cl.O=C(c1ccc(C(F)(F)F)c(F)c1)N1CCC2(CC1)N[C@@H](Cc1ccccc1)C(=O)N2Cc1ccccc1` [Example 53, 1,3-(S)-dibenzyl-8-(3-fluoro-4-trifluoromethylbenzoyl)-1,4,8-triazaspiro[4,5]decan-2-one hydrochloride], the “% Inhibition of the writhing reaction” value (male NMRI mice) was 30 (10) % and the BTX inhibition ([1]; Table II) was 48.
For `CCOC(=O)C(C)(C)C(=O)N1CCC2(CC1)NC(CCSC)C(=O)N2Cc1ccccc1[N+](=O)[O-]` (centres unmarked) [Example 331, Ethyl 1,1-dimethyl-2-[3-(2-methylsulfanylethyl)-1-(2-nitrobenzyl)-2-oxo-1,4,8-triazaspiro[4,5]dec-8-yl]-2-oxo-acetate], the “Uptake 5-HT, rat, 1 μM, % inhibition” value (5-HT transporter; Table III) was 58%, the BTX inhibition ([1]; Table III) was 46 and the “Uptake (NA), rat, 10 μM, % inhibition” value (NA transporter) was 38%.
